This is an account of results in patent US8101605B2, “SHIP1 modulators and methods related thereto” (Aquinox Pharmaceuticals Inc., priority 2009, dated 2012).

The subject of assay [1] is carrageenan-induced paw edema. Description: Carrageenan paw edema in mice. Type of assay: in vivo. To be noted: oral, doses less than 30 mg/kg, 4 hours after carrageenan. Here is the method: The activity of representative compounds on carrageenan paw edema in mice was evaluated according to the procedures disclosed by Winter et al., Proc Soc Exp Biol Med 111, 544-547, 1962, which is incorporated herein by reference in its entirety. To induce edema in the paw, test compounds were administered orally one hour before intraplantar injection of the right hind paw with carrageenan (50 μL of 1% suspension). Hind paw edema, as a measure of inflammation, was recorded using a plethysmometer (Ugo Basile, Italy) 4 hours after λ-carrageenan administration.

The subject of assay [2] is Akt phosphorylation in Jurkat (PTEN−/SHIP1−) cells. Description: Akt phosphorylation in IGF-1 stimulated Jurkat lymphocytes (western blot). Type of assay: cell-based. Also noted: key: +: inhibits Akt phosphorylation at 10 μM; −: no effect on Akt phosphorylation at 10 μM. Particulars: 10 μM; IGF-1 stimulation. How it is done:
Jurkat (PTEN−/SHIP1−) or Molt-4 (PTEN−/SHIP1+) cells were starved in serum free RPMI for overnight. In a 15 mL conical tube, 2-3 million serum starved cells (1 million cells per mL) were treated with various concentrations of test compound (0.1, 1, or 10 μM final in 0.1% DMSO) for 30 min at 37° C. followed by stimulation with 100 ng/mL of IGF-1 for 1 hour at 37° C. After stimulation, cells were washed once with ice-cold DPBS and lysed with Lysis Buffer (20 mM Tris-HCl, pH 7.5, 140 mM NaCl, 1% NP-40, Complete Mini Protease Inhibitor Cocktail, 10 mM NaF, 1 mM Na3VO4, 1 mM β-glycerolphosphate) on ice for 30 min with vortexing every 10 min. Samples were then centrifuged at 13,000 rpm for 20 min, and supernatants were collected as total cell lysate samples. Protein concentration was determined using bicinchonic acid assay, and about 15 μg of total protein from each sample was loaded and separated on a 4-12% Tris-Glycine gel. After SDS-PAGE, proteins were transferred from the gel to a nitrocellulose membrane. The membrane was blocked in 5% BSA in PBS containing 0.1% Tween-20 (PBS-T) for 1 hour at room temperature before probing with primary antibodies for overnight at 4° C. The following antibodies were used: mouse anti-SHIP1 (1:500 dilution; Santa Cruz, Calif., USA), rabbit anti-phospho-Akt(Ser473) (1:1000 dilution; Cell Signaling Technologies, MA, USA), rabbit anti-Akt (1:1000; Cell Signaling Technologies, MA, USA), and rabbit anti-actin (1:2000; Cell Signaling Technologies, MA, USA). The membrane was then incubated with goat anti-rabbit or anti-mouse secondary antibodies (1:3000) for 1 hour at room temperature. Target proteins on the membrane were detected with ECL solution and exposed on a film.
Scoring in Table 3 is expressed as follows: + (inhibits Akt phosphorylation at 10 μM); − (no effect on Akt phosphorylation at 10 μM).

Consider `Cc1cc(O)cc2c1[C@]1(C)CC[C@H]3C(C)(C)CCC[C@]3(C)[C@H]1CO2` [Compound No. 6, (1R,10R,11S,16S)-1,3,11,15,15-pentamethyl-8-oxatetracyclo[8.8.0.0^2,7.0^11,16]octadeca-2,4,6-trien-5-ol], for which, in assay [1], the “inhibition of carrageenan-induced paw edema” value is reported as 24%. The “Akt phosphorylation, Jurkat (SHIP1−)” value in assay [2] was “−”.
Turning to `CC1(C)CCC[C@]2(C)[C@H]3CS(=O)(=O)c4cc(O)cc(O)c4[C@]3(C)CC[C@@H]12` [Compound No. 28, (1R,10R,11S,16S)-3,5-dihydroxy-1,11,15,15-tetramethyl-8-thiatetracyclo[8.8.0.0^2,7.0^11,16]octadeca-2,4,6-triene-8,8-dione], the “Akt phosphorylation, Jurkat (SHIP1−)” value in assay [2] is recorded as “−”.
